Laboratory results taken from patent publication US8921306B2 (The University of Queensland, priority 2010, dated 2014).

Tests used:
Human erythrocytes = experiment: Haemolysis assay; assay type: cell-based; details: 37° C., 1 hour, absorbance at 544 nm
Procedure: Human erythrocytes were obtained from the Australian Red Cross Blood Service and diluted with PBS (pH 7.4) 1:50 to give a positive control reading of between 1.5-2.0 at 544 nm.
Equal amounts of cells were incubated with various concentrations of peptides and incubated at 37° C. for 1 hour. Cells were pelleted by centrifugation at 17,000 rpm for 5 minutes on a bench top centrifuge and the supernatant was collected. Haemolysis was assessed by reading the absorbance at 544 nm and normalized to 0% (PBS) and 100% (0.1% Triton-X100). This work was done with UQ ethics (200600011) and ARCBS (08-01QLD-07) approval.

[1] = Serum stability in normal human serum; assay type: in vitro ADME; details: 37° C., LCMS, read-out: half-life (t1/2) in normal human serum
Procedure: Peptide stability was assessed in normal human serum (Sigma-Aldrich, NY, USA). The peptides were incubated with the serum in a water bath at 37° C. and aliquots were removed at specific time points. Serum proteins were precipitated after adding 3-fold excess acetonitrile, and proteins were precipitated by centrifugation at 17,000 rpm for 15 min. The supernatants were collected and analyzed by LCMS (4000 QTRAPR, Applied Biosystems) and all data normalized to the initial time point.

[2] = Circular dichroism spectroscopy (helicity); assay type: physicochemical
Procedure: CD measurements were performed using a Jasco model J-710 spectropolarimeter which was routinely calibrated with (1S)-(+)-10-camphorsulfonic acid. A stock solution of 1-2 mg of peptide was dissolved in 1 mL of water. Separate 500 μL solutions of 50, 100, 200 and 400 μM were then prepared using an appropriate amount of stock solution and making up the different with 10 mM Phosphate Buffer (final pH 7.1). […] Jasco quartz cell over the wavelength range 260-185 nm at 100 nm/min. with a bandwidth of 1.0 nm, response time of 2 s, resolution step width of 1 nm and sensitivity of 20-50 Mdeg. Each spectrum represents the average of 5 scans. Spectra were analyzed using the spectral analysis software and smoothed using ‘adaptive smoothing’ function. Concentrations were determined using the PULCON method. [Wider, Dreier, 2006, J. Am. Chem. Soc. 128:2571-2576]
The incorporation of two lactam bridges induced appreciable helicity, monitored at 222 nm, and was calculated to range between 32-77% helicity. […] This is due to the fact that residues 1-6 (or 1-5 in 6) are not constrained and would not be expected to be in a helical conformation as they feature amino acids that have little or no propensity to adopt helices in proteins. To determine whether the exocyclic regions were the sole cause of low helicity, SEQ ID NO:15 without the N-terminal message was investigated further. This 12-residue peptide features eight residues (K, R, Q) known to favor α-helicity in proteins, and was 60% helical in phosphate buffer by CD spectral analysis. The serine residue is conserved within the sequence of many of these peptides and is known to be a helix breaker.

circular dichroism = details: 10 mM phosphate; pH 7.4; 22 °C; 50-400 uM
ORL-1 receptor [3] = biological target: T1, ORL-1 receptor (Mus musculus, UniProt P35377); experiment: Agonist functional activity assessed by ERK phosphorylation (pERK) in Neuro-2a cells; assay type: cell-based
T1 construct: Neuro-2a cells were a gift from Professor John Mattick's laboratory; endogenous in cells; host or cells: Neuro-2a cells
T1 sequence (P35377 whole entry): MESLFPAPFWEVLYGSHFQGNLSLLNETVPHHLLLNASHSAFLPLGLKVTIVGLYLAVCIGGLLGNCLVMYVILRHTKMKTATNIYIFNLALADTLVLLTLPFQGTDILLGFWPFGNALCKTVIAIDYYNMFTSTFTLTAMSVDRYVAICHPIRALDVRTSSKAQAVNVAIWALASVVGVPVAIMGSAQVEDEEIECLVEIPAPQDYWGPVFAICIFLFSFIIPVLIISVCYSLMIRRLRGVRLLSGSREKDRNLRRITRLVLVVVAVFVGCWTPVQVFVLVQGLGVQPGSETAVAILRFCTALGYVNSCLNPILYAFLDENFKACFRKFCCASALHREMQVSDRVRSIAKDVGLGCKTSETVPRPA
Procedure: (§1) Neuro-2a cells were a gift from Professor John Mattick's laboratory (Institute of Molecular Bioscience, University of Queensland) and were cultured in Gibco® DMEM (Invitrogen, CA, USA) supplemented with 10% FBS (Invitrogen, CA, USA), GIBCO® Pen/Strep (50 units/mL penicillin and 50 μg/mL streptomycin, Invitrogen, CA, USA) and GIBCO® NEAA (1× concentration, Invitrogen, CA, USA). Cells were split 1:10 every 3 days.
(§2) All cells were incubated at 37° C. and 5% CO2. When treated with pertussis toxin (PTX, catalogue number P7208, Sigma-Aldrich, NY, USA), cells were incubated with 500 ng/mL for 15 hours before use. Cells treated with MEK inhibitor PD98059 (catalogue number PHZ1164, Invitrogen, CA, USA) were preincubated with 50 μM for 1 hour before use.
(§3) Cells were placed in 12-well plates (NUNC™, NY, USA) and allowed to adhere for 24-36 h. […]
(§4) Membranes were washed 3×10 minutes with TBE (with 0.1% Tween-20) and incubated with a primary antibody. […] Radiography was quantified using ImageJ (ImageI 1.36b, NIH).
(§5) pERK and total ERK concentrations were determined using a modified protocol for the AlphaScreen Surefire Assay. […] The ratio of pERK to total ERK was determined using equation 1 and normalized to control. […]
(§6) Concentration responses were analyzed using non-linear regression (variable slope) (Prism5, GraphPad Software) and data is presented as either EC50 (for agonists) or IC50 (antagonists). […]

ORL-1 receptor [4] = biological target: T1, ORL-1 receptor; experiment: Antagonist functional activity assessed by ERK phosphorylation (pERK) in Neuro-2a cells challenged with 100 nM nociceptin(1-17)-NH2; assay type: cell-based
Procedure: as §1, §2, §3, §4, §5, §6

C57BL/6 mice = experiment: Anti-nociceptive activity in mice, hot plate front paw withdrawal latency; assay type: in vivo; details: co-administered 200 pmol with SEQ ID NO:8 (200 pmol)
Procedure: Mice (C57BL/6; n=45) were brought into the experimental room for at least 30 minutes prior to testing. They were then individually placed on an accredited hot plate heated to 53±0.54° C. and timed until any front paw withdrawal, licking or jumping behaviour was recorded (baseline response). Mice were not left on the hot plate for longer than 30 sec. […] Mice were then individually placed on the hot plate again at time points 1, 5, 15, 30, 45 and 60 min post injection. Each test was video monitored.
In a parallel experiment, agonist of SEQ ID NO:8 was co-administered with the helical antagonist of SEQ ID NO:13, where upon the increased paw withdrawal latency produced by agonist of SEQ ID NO:8 alone was abolished. This confirms that the helix constrained peptide of SEQ ID NO:13 is a potent antagonist of SEQ ID NO:8 in vivo.

Compound: CC(C)C[C@H](NC(=O)[C@H](CCCCN)NC(=O)[C@H](CCCN=C(N)N)NC(=O)[C@H](C)NC(=O)[C@H](CO)NC(=O)[C@H](CCCCN)NC(=O)[C@H](CCCN=C(N)N)NC(=O)[C@H](C)NC(=O)CNC(=O)[C@@H](NC(=O)[C@H](Cc1ccccc1)NC(=O)CNC(=O)CNC(=O)[C@@H](N)Cc1ccccc1)[C@@H](C)O)C(=O)N[C@@H](C)C(=O)N[C@@H](CC(N)=O)C(=O)N[C@@H](CCC(N)=O)C(=O)O [SEQ ID NO:1, reference compound]
- haemolytic activity (Human erythrocytes): Neither of the cyclic peptides tested (SEQ ID NOs:7 AND 8), nor the unconstrained nociceptin(1-17)-OH (SEQ ID NO:1) had any haemolytic activity
- half-life [1]: ≤ 1 h

Compound: C[C@@H]1NC(=O)[C@@H](NC(=O)[C@H](CCCCN)NC(=O)[C@H](CCCN=C(N)N)NC(=O)[C@@H]2CC(=O)NCCCC[C@H](NC(=O)CNC(=O)[C@@H](NC(=O)[C@H](Cc3ccccc3)NC(=O)CNC(=O)CNC(=O)[C@@H](N)Cc3ccccc3)[C@@H](C)O)C(=O)N[C@@H](CCCN=C(N)N)C(=O)N[C@@H](CCCCN)C(=O)N[C@@H](CO)C(=O)N2)CCCCNC(=O)C[C@@H](C(N)=O)NC(=O)[C@H](CCC(N)=O)NC(=O)[C@H](CC(N)=O)NC1=O [SEQ ID NO:7, H-FGGFTG[KRKSD]RK[KANQD]-NH2]
- haemolytic activity (Human erythrocytes): Neither of the cyclic peptides tested (SEQ ID NOs:7 AND 8), nor the unconstrained nociceptin(1-17)-OH (SEQ ID NO:1) had any haemolytic activity
- half-life [1]: > 6 h

Compound: C[C@@H](O)[C@H](NC(=O)[C@H](Cc1ccc(F)cc1)NC(=O)CNC(=O)CNC(=O)[C@@H](N)Cc1ccccc1)C(=O)NCC(=O)N[C@H]1CCCCNC(=O)C[C@@H](C(=O)N[C@@H](CCCN=C(N)N)C(=O)N[C@@H](CCCCN)C(=O)N[C@H]2CCCCNC(=O)C[C@@H](C(N)=O)NC(=O)[C@H](CCC(N)=O)NC(=O)[C@H](CC(N)=O)NC(=O)[C@H](CCCCN)NC2=O)NC(=O)[C@H](CO)NC(=O)[C@H](CCCCN)NC(=O)[C@H](CCCN=C(N)N)NC1=O [SEQ ID NO:8, H-FGGF(4-F)TG[KRKSD]RK[KKNQD]-NH2]
- haemolytic activity (Human erythrocytes): Neither of the cyclic peptides tested (SEQ ID NOs:7 AND 8), nor the unconstrained nociceptin(1-17)-OH (SEQ ID NO:1) had any haemolytic activity
- half-life [1]: > 6 h

Compound: CC(C)C[C@H](NC(=O)[C@H](CCCCN)NC(=O)[C@H](CCCNC(=N)N)NC(=O)[C@H](C)NC(=O)[C@H](CO)NC(=O)[C@H](CCCCN)NC(=O)[C@H](CCCNC(=N)N)NC(=O)[C@H](C)NC(=O)CNC(=O)[C@@H](NC(=O)[C@H](Cc1ccccc1)NC(=O)CNC(=O)CNC(=O)[C@@H](N)Cc1ccccc1)[C@@H](C)O)C(=O)N[C@@H](C)C(=O)N[C@@H](CC(N)=O)C(=O)N[C@@H](CCC(N)=O)C(=O)O [compound 1]
- fH (buffer) ([2]; 10 mM phosphate buffer (pH 7.4) at 22° C., fH calculated based on θ at 222 nm): 0.02
- fH (TFE*) ([2]; buffer: TFE 50:50, 22° C.): 0.15
- helicity (circular dichroism): 0.02 frac
- Emax (ORL-1 receptor [3]; N2a): 90 ± 7%

Compound: Ac-[KRKSD]RK[KKNQD]-NH2 (XRKSXRKXKNQX; N-acetyl, cyclic lactams, C-amide) [SEQ ID NO:15]
- helicity ([2]; phosphate buffer, CD monitored at 222 nm): 60%

Compound: BzlGGGF(4-F)TG[KRKSD]RK[KKNQD]-NH2 (XGGXTGXRKSXRKXKNQX; N-benzyl, 4-F-Phe, cyclic lactams, C-amide) [SEQ ID NO:13]
- improvement in antagonist activity (fold) (ORL-1 receptor [4]; constrained relative to unconstrained analogue): over four-fold
- effect on increased paw withdrawal latency produced by agonist SEQ ID NO:8 (C57BL/6 mice): abolished
- agonist activity at single point concentration (ORL-1 receptor [3]; 1 μM): neither showed significant agonist activity

Compound: BzlGlyGGFT[KARKD][KRKLD]-NH2 (XGGFTXARKXXRKLX; N-benzyl, cyclic lactams, C-amide) [SEQ ID NO:14]
- antagonist activity (ORL-1 receptor [4]; up to 3 μM): abolished antagonist activity
